Publication PMC6222820, “Synthesis of New Triarylpyrazole Derivatives Possessing Terminal Sulfonamide Moiety and Their Inhibitory Effects on PGE2 and Nitric Oxide Productions in Lipopolysaccharide-Induced RAW 264.7 Macrophages” (Molecules : A Journal of Synthetic Chemistry and Natural …, 2018)
Entries after “also recorded” stand apart in the source; their conditions may differ.

Key:
[1] = MTT assay for cell viability / cytotoxicity; type: cell-based; settings: mouse, RAW 264.7 macrophages, means ± SD of three independent experiments
Procedure: In addition to NO inhibition, the cytotoxic activity of compounds 1a–i, 2a–i, 3a–h, and 4a–h in RAW 264.7 macrophages were measured using the 3-(4,5-dimethylthiazol-2-yl)-2,5-diphenyltetrazolium bromide (MTT) assay to check whether the effects on the production of NO was caused by nonspecific cytotoxicity.
(§1) Cell culture and sample treatment were performed as reported in the literature. The 3-(4,5-dimethylthiazol-2-yl)-2,5-diphenyltetrazolium bromide (MTT) assay for cell viability followed the procedure previously described in the literature. Nitrite determination was carried as described in the literature, and the PGE2 assay was carried as previously described.

[2] = tested on: LPS-induced RAW 264.7 macrophages; assay: PGE2 production inhibition in LPS-induced RAW 264.7 macrophages; type: cell-based; settings: Mus musculus, means ± SD of three independent experiments; for inhibition at 1 µM: RAW264.7, 1 μM; for inhibition at 5 µM: RAW264.7, 5 μM; for inhibition at 10 µM: RAW264.7, 10 μM; for IC50: RAW264.7, LPS-induced RAW 264.7 macrophages
Procedure: Compounds 1b, 1g, 2a, and 2c were able to inhibit more than 50% of the prostaglandin production at a dose 5 μM. The five compounds were able to reduce PGE2 production by over 75% at a dose of 10 μM.
as §1

[3] = tested on: LPS-induced RAW 264.7 macrophages; assay: Nitric oxide (NO) production inhibition in LPS-induced RAW 264.7 macrophages (nitrite determination); type: cell-based; settings: Mus musculus; for inhibition at 1 µM: RAW264.7, 1 µM; for inhibition at 1 µM / inhibition at 5 µM / inhibition at 10 µM: LPS-induced RAW 264.7 macrophages; for inhibition at 5 µM: RAW264.7, 5 µM; for inhibition at 10 µM: RAW264.7, 10 µM; for IC50: RAW264.7, nitric oxide production, means ± SD of three independent experiments, read-out: NO (IC50)
Procedure: The ability of a certain molecule to inhibit the production of inflammatory mediator(s) is one of successful approach to treatment both chronic and acute inflammation.
as §1

iNOS = biological target: T1, iNOS (Mus musculus, UniProt P29477); assay: iNOS enzyme activity in LPS-pretreated cells (Griess reaction); type: cell-based; settings: 5, 10, or 20 μM for 12 h after LPS (1 µg/mL) 12 h
T1 construct: endogenous in cells; host or cells: RAW 264.7 macrophages, LPS-stimulated
Procedure: Figure 4 Effect of compounds 1b, 1d, 1g, 2a, and 2c on iNOS activity. Following pretreatment with lipopolysaccharide (LPS, 1 µg/mL) for 12 h and wash with phosphate buffer solution (PBS), cells were treated with 1g (5, 10, or 20 μM) for 12 h N^6-(1-Iminoethyl)-L-lysine. (L-NIL) (40 μM) was used as the positive control in the assay. Levels of NO in culture media were quantified using the Griess reaction assay. Data are presented as the means ± SD of three independent experiments. # p < 0.05 versus the control cells; *** p < 0.001 versus LPS-stimulated cells; * statistical significances were compared using ANOVA and Dunnett’s post hoc test.

[4] = tested on: inducible nitric oxide synthase (iNOS); assay: LPS-induced iNOS protein expression (SDS-PAGE / immunoblot of cellular lysates); type: cell-based; settings: 20 µM; pretreatment 1 h, then LPS (1 μg/mL) 24 h; β-actin reference
Procedure: As a result of their activity against both NO and PGE2 production and low cellular toxicity, compounds 1b, 1d, 1g, 2a, and 2c were tested for their inhibitory effect on the expression of both iNOS and COX-2. The cellular lysates were prepared from the with- and without-pretreatment tested compounds (5, 10, 20 μM) for one hour and then with LPS (1 μg/mL) for 24 h, using β-actin as a reference. […] Compound 1g might express its inhibitory effect on NO production mainly through inhibition of iNOS protein expression and partially through inhibition of iNOS enzyme activity.
Figure 3 Inhibitory activity of compounds 1b, 1d, 1g, 2a, and 2c on inducible nitric oxide synthase (iNOS) and Cyclooxygenase 2 (COX-2) Cellular lysates were prepared from the with/without pretreatment tested compound (5, 10, and 20 μM) for one hour and then with LPS (1 μg/mL) for 24 h. Total cellular proteins were resolved by sodium dodecyl sulphate-polyacrylamide gel electrophoresis (SDS-PAGE), transferred to Polyvinylidene fluoride (PVDF) membranes, and detected with specific iNOS and COX-2 antibodies. β-actin was used as an internal control.

Structure (SMILES)	melting point [°C]	IC50 [2] [µM]	IC50 [3] [µM]	IC50 [1] [µM]	inhibition at 1 µM [2] [%]	inhibition at 5 µM [2] [%]	inhibition at 10 µM [2] [%]	inhibition at 1 µM [3] [%]	inhibition at 5 µM [3] [%]	inhibition at 10 µM [3] [%]	Inhibition of iNOS enzyme activity (iNOS)	Inhibition of iNOS expression [4]
COc1cccc(-c2nn(-c3ccccc3)cc2-c2ccnc(NCCCNS(=O)(=O)c3ccc(Cl)cc3)c2)c1 [Compound 2c, 4-Chloro-N-(3-((4-(3-(3-methoxyphenyl)-1-phenyl-1H-pyrazol-4-yl)pyridin-2-yl)amino)propyl)benzenesulfonamide]	98 to 100	4.68 ± 0.37	8.68 ± 0.22	289.9 ± 1.87	17.5 ± 1.51	> 50	81.4 ± 2.94	0.02 ± 0.01	24.7 ± 0.81	59.1 ± 0.93	–	–
COc1ccc(S(=O)(=O)NCCCNc2cc(-c3cn(-c4ccccc4)nc3-c3cccc(OC)c3)ccn2)cc1 [Compound 2e, 4-Methoxy-N-(3-((4-(3-(3-methoxyphenyl)-1-phenyl-1H-pyrazol-4-yl)pyridin-2-yl)amino)propyl)benzenesulfonamide]	124 to 126	–	9.96 ± 0.18	> 400	–	–	–	2.02 ± 0.01	23.9 ± 1.12	50.2 ± 1.88	–	–
O=S(=O)(NCCCNc1cc(-c2cn(-c3ccccc3)nc2-c2cccc(O)c2)ccn1)c1ccc(Cl)cc1 [Compound 4c, 4-Chloro-N-(3-((4-(3-(3-hydroxyphenyl)-1-phenyl-1H-pyrazol-4-yl)pyridin-2-yl)amino)propyl)benzenesulfonamide]	166 to 168	–	13.2 ± 0.52	18.8 ± 0.68	–	–	–	0.86 ± 0.09	22 ± 0.42	47 ± 1.34	–	–
O=S(=O)(NCCNc1cc(-c2cn(-c3ccccc3)nc2-c2cccc(O)c2)ccn1)c1ccc(Br)cc1 [Compound 3b, 4-Bromo-N-(2-((4-(3-(3-hydroxyphenyl)-1-phenyl-1H-pyrazol-4-yl)pyridin-2-yl)amino)ethyl)benzenesulfonamide]	178 to 180	–	10.6 ± 0.51	24.3 ± 0.41	–	–	–	15.8 ± 0.16	24.4 ± 0.52	48.7 ± 1.74	–	–
CS(=O)(=O)Nc1ccc([N+](=O)[O-])cc1OC1CCCCC1 [NS-398, N-(2-cyclohexyloxy-4-nitrophenyl)methanesulfonamide, reference compound]	–	0.00625	–	–	90.53 ± 0.53	95.78 ± 0.67	98.2 ± 1.5	–	–	–	–	–
COc1cccc(-c2nn(-c3ccccc3)cc2-c2ccnc(NCCCNS(=O)(=O)c3ccc(Br)cc3)c2)c1 [Compound 2b, 4-Bromo-N-(3-((4-(3-(3-methoxyphenyl)-1-phenyl-1H-pyrazol-4-yl)pyridin-2-yl)amino)propyl)benzenesulfonamide]	117 to 119	–	9.5 ± 0.34	384.7 ± 1.29	–	–	–	0.01 ± 0.03	28.1 ± 0.66	52.4 ± 1.62	–	–
O=S(=O)(NCCNc1cc(-c2cn(-c3ccccc3)nc2-c2cccc(O)c2)ccn1)c1ccc(Cl)cc1 [Compound 3c, 4-Chloro-N-(2-((4-(3-(3-hydroxyphenyl)-1-phenyl-1H-pyrazol-4-yl)pyridin-2-yl)amino)ethyl)benzenesulfonamide]	100 to 102	–	15.2 ± 0.17	22.7 ± 0.3	–	–	–	6.34 ± 0.06	11.7 ± 0.71	33.8 ± 0.89	–	–
O=S(=O)(NCCNc1cc(-c2cn(-c3ccccc3)nc2-c2cccc(O)c2)ccn1)c1cccc(F)c1 [Compound 3g, 3-Fluoro-N-(2-((4-(3-(3-hydroxyphenyl)-1-phenyl-1H-pyrazol-4-yl)pyridin-2-yl)amino)ethyl)benzenesulfonamide]	146 to 148	–	21.42 ± 0.17	28.7 ± 0.74	–	–	–	16.2 ± 0.17	19.1 ± 0.89	37.7 ± 0.85	–	–

Further compounds by falling IC50 [3], results first:

melting point [°C]	IC50 [2] [µM]	IC50 [3] [µM]	Structure (SMILES)	IC50 [1] [µM]	inhibition at 1 µM [2] [%]	inhibition at 5 µM [2] [%]	inhibition at 10 µM [2] [%]	inhibition at 1 µM [3] [%]	inhibition at 5 µM [3] [%]	inhibition at 10 µM [3] [%]	Inhibition of iNOS enzyme activity (iNOS)	Inhibition of iNOS expression [4]
100 to 102	–	10.3 ± 0.23	O=S(=O)(NCCNc1cc(-c2cn(-c3ccccc3)nc2-c2cccc(O)c2)ccn1)c1ccccc1 [Compound 3a, N-(2-((4-(3-(3-Hydroxyphenyl)-1-phenyl-1H-pyrazol-4-yl)pyridin-2-yl)amino)ethyl)benzenesulfonamide]	29.8 ± 1.91	–	–	–	4.78 ± 0.03	21.5 ± 0.37	49 ± 1.1	–	–
132 to 134	–	10.1 ± 0.63	COc1cccc(-c2nn(-c3ccccc3)cc2-c2ccnc(NCCNS(=O)(=O)c3ccc(Cl)cc3)c2)c1 [Compound 1c, 4-Chloro-N-(2-((4-(3-(3-methoxyphenyl)-1-phenyl-1H-pyrazol-4-yl)pyridin-2-yl)amino)ethyl)benzenesulfonamide]	219.39 ± 0.14	–	–	–	13.27 ± 0.08	24.76 ± 0.17	49.9 ± 1.25	–	–
104 to 106	–	9.17 ± 0.52	COc1cccc(-c2nn(-c3ccccc3)cc2-c2ccnc(NCCNS(=O)(=O)c3ccccc3)c2)c1 [Compound 1a, N-(2-((4-(3-(3-Methoxyphenyl)-1-phenyl-1H-pyrazol-4-yl)pyridin-2-yl)amino)ethyl)benzenesulfonamide]	245.8 ± 1.91	–	–	–	17.35 ± 0.09	35.4 ± 1.14	52.9 ± 3.12	–	–
154 to 156	–	8.86 ± 0.36	O=S(=O)(NCCCNc1cc(-c2cn(-c3ccccc3)nc2-c2cccc(O)c2)ccn1)c1ccccc1 [Compound 4a, N-(3-((4-(3-(3-Hydroxyphenyl)-1-phenyl-1H-pyrazol-4-yl)pyridin-2-yl)amino)propyl)benzenesulfonamide]	16.6 ± 0.91	–	–	–	11.11 ± 0.1	24.1 ± 0.56	59.2 ± 1.31	–	–
–	4.55 ± 0.39	8.55 ± 0.14	COc1cccc(-c2nn(-c3ccccc3)cc2-c2ccnc(NCCNS(=O)(=O)c3ccc(C(F)(F)F)cc3)c2)c1 [Compound 1g, N-(2-((4-(3-(3-Methoxyphenyl)-1-phenyl-1H-pyrazol-4-yl)pyridin-2-yl)amino)ethyl)-4-(trifluoromethyl)benzenesulfonamide]	261.6 ± 1.57	19.9 ± 0.89	> 50	79.3 ± 2.19	10.98 ± 0.07	23.6 ± 0.54	60.8 ± 1.75	slightly inhibited iNOS enzyme activity in a dose-dependent manner	complete inhibition; also recorded: potential iNOS inhibitory effect
120 to 122	–	8.24 ± 0.41	O=S(=O)(NCCCNc1cc(-c2cn(-c3ccccc3)nc2-c2cccc(O)c2)ccn1)c1cccc(F)c1 [Compound 4g, 3-Fluoro-N-(3-((4-(3-(3-hydroxyphenyl)-1-phenyl-1H-pyrazol-4-yl)pyridin-2-yl)amino)propyl)benzenesulfonamide]	9.35 ± 0.32	–	–	–	–	29.5 ± 0.86	51.1 ± 1.45	–	–
119 to 120	4.87 ± 0.44	8.04 ± 0.09	COc1cccc(-c2nn(-c3ccccc3)cc2-c2ccnc(NCCCNS(=O)(=O)c3ccccc3)c2)c1 [Compound 2a, N-(3-((4-(3-(3-Methoxyphenyl)-1-phenyl-1H-pyrazol-4-yl)pyridin-2-yl)amino)propyl)benzenesulfonamide]	346 ± 4.21	31.1 ± 1.14	> 50	76.9 ± 4.99	0.17 ± 0.03	30.2 ± 0.27	62.8 ± 3.25	–	–
